Laboratory results as given in PubChem BioAssay (NCI).
Where “and” joins values, the source holds several entries; their conditions need not be identical. Equal values may be shown once.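 Interpolation was linear, between the two tested concentrations surrounding the appropriate level; five concentrations were tested over 48 hours in 96-well plates. GI50 is the concentration that inhibits growth by half. TGI is the concentration that stops growth completely.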 Where a SMILES comes first, the peptide text is derived from it. [ ]: non-standard residue; d: D form. The star is where a group is joined. NMeAc5c = CNC1(C(=O)O)CCCC1; Boc = CC(C)(C)OC(=O)*; OBn = c1ccc(CO*)cc1

What was measured:
Experiment in all cases: inhibition of tumour cell growth, NCI panel, 48 h
MDA-MB-435 = test system: MDA-MB-435
SK-MEL-28 melanoma = test system: SK-MEL-28 melanoma
BT-549 breast = test system: BT-549 breast
TK-10 renal = test system: TK-10 renal
NCI-H522 lung = test system: NCI-H522 lung
IGROV1 ovarian = test system: IGROV1 ovarian
MCF7 breast = test system: MCF7 breast
NCI-H460 lung = test system: NCI-H460 lung
OVCAR-4 ovarian = test system: OVCAR-4 ovarian
M14 melanoma = test system: M14 melanoma
DU-145 prostate = test system: DU-145 prostate

Row | SMILES | TGI (MDA-MB-435) [µM] | TGI (SK-MEL-28 melanoma) [µM] | TGI (BT-549 breast) [µM] | TGI (TK-10 renal) [µM] | TGI (NCI-H522 lung) | TGI (IGROV1 ovarian) [µM] | TGI (MCF7 breast) [µM] | TGI (NCI-H460 lung) [µM] | TGI (OVCAR-4 ovarian) [µM] | TGI (M14 melanoma) [µM] | TGI (DU-145 prostate) [µM] | GI50 (MDA-MB-435) [µM] | GI50 (NCI-H522 lung) [µM] | GI50 (MCF7 breast) [µM] | GI50 (NCI-H460 lung) [µM] | GI50 (M14 melanoma) [µM] | GI50 (TK-10 renal) [µM] | GI50 (OVCAR-4 ovarian) [µM]
1 | COc1ccc(-c2c(C#N)c(-c3ccc(C)cc3)n(NS(=O)(=O)c3ccc(C)cc3)c(=O)c2C#N)cc1 | > 100 | > 100 | > 100 | > 100 | > 100 µM | > 100 | > 100 | > 100 | > 100 | > 100 | – | – | – | – | – | – | – | –
2 | C#CCNC(CS)C(=O)O (configuration not stated) | > 100 | > 100 | > 100 | > 100 | > 100 µM | > 100 | – | > 100 | > 100 | > 100 | > 100 | – | – | – | – | – | – | –
3 | CC1CCC(n2c3cnccc3c3cnc(Nc4ccc5c(n4)CCN(C(=O)CO)C5)nc32)CC1 (configuration not stated) | > 100 | – | – | – | > 100 µM | – | > 100 | > 100 | – | > 100 | – | 0.66 | > 100 | 0.127 | 0.422 | 0.681 | – | –
4 | COC(CCC[N+](C)(C)C)CC[N+](C)(C)C (configuration not stated) | – | > 100 | > 100 | > 100 | > 100 µM | > 100 | > 100 | > 100 | > 100 | > 100 | > 100 | – | – | – | – | – | – | –
5 | CN(C(=O)C(Cc1ccccc1)NC(=O)OC(C)(C)C)C1(C(=O)NC(Cc2ccccc2)C(=O)OCc2ccccc2)CCCC1 (stereo not drawn) (Boc-Phe-[NMeAc5c]-Phe-OBn; configuration not given here) | > 100 | > 100 | > 100 | > 100 | – | > 100 | > 100 | 59.8 | > 100 | 45.9 | > 100 | – | – | – | – | – | – | –
6 | CCCN(C(=O)c1ccccc1)C(C#N)c1ccc(C(C#N)N(CCC)C(=O)c2ccccc2)cc1 (configuration not stated) | > 100 | – | > 100 | > 100 | > 100 µM | > 100 | > 100 | – | 66.7 | > 100 | > 100 | – | – | – | – | – | – | –
7 | Cc1nc2n(c1/C=C1/C(=O)Nc3cccc(Cl)c31)CCS2 | > 100 | > 100 | 98.7 | > 100 | > 100 µM | > 100 | > 100 | > 100 | – | > 100 | > 100 | – | – | – | – | – | – | –
8 | Nc1nc(Cl)cc(NCC2(CO)CC(=O)C2)n1 | > 100 | > 100 | > 100 | > 100 | > 100 µM | > 100 | > 100 | > 100 | > 100 | – | > 100 | – | – | – | – | – | – | –
9 | Cc1c(O)c(O)cc[n+]1C1OC(CO)C(O)C1O (configuration not stated) | – | > 100 | – | > 100 | > 100 µM | > 100 | – | > 100 | > 100 | > 100 | – | – | – | – | – | – | – | –
10 | COC(=O)c1c(C)cccc1C1CN=NC12Cc1ccc(C)cc1C2=O (configuration not stated) | > 100 | > 100 | – | > 100 | 91.9 µM | > 100 | > 100 | 28.2 | > 100 | > 100 | > 100 | – | – | – | – | – | – | –
11 | O=C1CCCc2cc3c(cc21)CC1(Cc2ccccc2C1)C3 | 4.61 | – | – | > 100 | 21.5 µM | > 100 | 61.2 | – | 63.9 | 25.3 | – | – | – | – | – | – | – | –
12 | c1csc(-c2ccc(-c3cccc4nsnc34)s2)c1 | > 100 | > 100 | > 100 | > 100 | > 100 µM | – | > 100 | > 100 | > 100 | > 100 | > 100 | – | – | – | – | – | – | –
13 | O=C1CCCSC(=O)N1Cc1ccccc1 | > 100 | > 100 | – | > 100 | > 100 µM | > 100 | > 100 | > 100 | > 100 | > 100 | > 100 | – | – | – | – | – | – | –
14 | O=C(NC(=O)c1ccccc1[N+](=O)[O-])Nc1ccc(Oc2ncc(Br)cn2)c(Cl)c1 | 0.0312 | 0.0733 | – | – | 0.0378 µM and 0.198 µM | – | – | – | – | – | 0.0902 | – | – | – | < 0.0197 | – | 10.5 | 7.58
15 | C=C1C(=O)O[C@@H]2C(=O)[C@@H](C)CCC/C(C)=C/CC[C@@]3(C)O[C@@H]3C[C@@H]12 | > 100 | > 100 | – | 81.6 | 25.2 µM | 45.7 | > 100 | – | > 100 | > 100 | > 100 | – | – | – | – | – | – | –
16 | N#Cc1c(-c2ccccc2)/c(=C\Nc2cccc(C(F)(F)F)c2)c(=O)n2c1nc1ccccc12 | > 100 | > 100 | > 100 | > 100 | 32.1 µM | > 100 | > 100 | > 100 | > 100 | > 100 | – | – | – | – | – | – | – | –
17 | COCO[C@@H]1C[C@H]2C(=O)Nc3ccccc3C(=O)N2C1 | > 100 | > 100 | > 100 | > 100 | 37.5 µM | > 100 | > 100 | – | > 100 | > 100 | > 100 | – | – | – | – | – | – | –
18 | CC(C)CCS(=O)(=O)OCCCCOS(=O)(=O)CCC(C)C | – | > 100 | – | > 100 | > 100 µM | > 100 | – | > 100 | – | 29.6 | – | – | – | – | – | – | – | –
19 | c1ccc(-c2nc(-c3ccccc3SSc3ccccc3-c3nc(-c4ccccc4)nn3-c3ccccc3)n(-c3ccccc3)n2)cc1 | > 100 | > 100 | > 100 | > 100 | – | > 100 | > 100 | > 100 | – | > 100 | > 100 | – | – | – | – | – | – | –
20 | O=C1/C(=C/c2ccccc2)N=C2Sc3c(nc[nH]c3=O)N12 | > 100 | > 100 | – | > 100 | > 100 µM | > 100 | > 100 | – | > 100 | > 100 | > 100 | – | – | – | – | – | – | –
21 | NC(=O)NCCCC(NC(=O)OCCCCn1ccc(=O)[nH]c1=O)C(=O)O (configuration not stated) | > 100 | > 100 | > 100 | > 100 | – | > 100 | > 100 | > 100 | > 100 | > 100 | > 100 | – | – | – | – | – | – | –
22 | COc1cc(C(=O)N(C(=S)OCc2ccccn2)c2ccccc2)cc(OC)c1OC | > 100 | > 100 | > 100 | > 100 | – | 79.6 | > 100 | > 100 | – | > 100 | > 100 | – | – | – | – | – | – | –
